Experimental data as given in paper PMC9822133, “Design, Synthesis and Antiproliferative Evaluation of Bis-Indole Derivatives with a Phenyl Linker: Focus on Autophagy” (Molecules, 2022).

How the values were obtained:
Phospho-ULK Ser555 = test: Western blot, phospho-ULK1 Ser555; type: cell-based, human; settings: A549, all time periods, mostly after 24 and 48 h
Source text: ULK1/AMPK. ULK1 is a serine/threonine protein kinase. The ULK1 complex controls the formation of the phagophore, the initial autophagosomal precursor membrane structure. Upon induction of autophagy, the ULK1 complex translocates to autophagy initiation sites and regulates the recruitment of a second kinase complex, VPS34. ULK1 can be inhibited by phosphorylation by mammalian target of rapamycin complex 1 (mTORC1) or activated after AMP-activated protein kinase (AMPK) phosphorylation. Under conditions of nutrient deficiency, AMPK is activated, which directly activates ULK1. The kinase is phosphorylated, i.e., activated by an increased AMP/ATP ratio due to cellular and environmental stress. AMPK also inactivates mTORC1 and thus blocks its inhibitory action on autophagy activation.
A549 cells were seeded on Petri dishes (55 cm^2) at a density of 1 × 10^6 and allowed to culture in the medium. After 24 h, the test substance was added, and the cells were incubated for 24, 48 and 72 h. […] After lysis, the cells were sonicated, and the protein concentration in the samples was quantified using the Pierce® BCA Protein Assay Kit (Thermo Scientific, Rockford, IL, USA) and measured by an automated Cytation™ 3 Cell Imaging Multi-Mode Reader (Biotek) at a wavelength of 570 nm. […]

[1] = tested on: glutathione peroxidase (GPx); test: GPx activity in treated A549 cells; type: cell-based, human; settings: A549, 20 µM
Source text: Glutathione is an important intracellular molecule involved in carcinogen detoxification. On the other hand, its elevated state in cancer cells is often associated with resistance to chemotherapy. […] Because high levels of GSH are associated with cancer cell resistance, the GHS-depleting effect of compound 49 could be interesting due to new cancer chemosensitizer development. In the case of GST and GR, we hypothesize that an increase in the activity of both enzymes may be a compensatory mechanism induced by GSH depletion.
Both floating and adherent A549 cells were harvested at 24, 48, and 72 h after treatment with compound 49 (20 µM). SOD determination kit, Glutathione Peroxidase Cellular Activity Assay kit, Glutathione Reductase Assay Kit and Glutathione-S-transferase (GST) Assay Kit (all Sigma Aldrich, Germany) were used for the detection of relevant enzyme activity. Reduced glutathione (GSH) content was measured by the method originally described by Floreani et al.. Assays were performed on an M 501 single beam UV/VIS spectrophotometer (Spectronic Camspec Ltd., Leeds, United Kingdom). All measured parameters were calculated per milligram or gram of protein determined using the bicinchoninic acid assay.

SMILES: CC(C)(C)OC(=O)n1cc(CNC(=O)Nc2ccc(NC(=O)NCc3cn(C(=O)OC(C)(C)C)c4ccccc34)cc2)c2ccccc21 [Compound 49, N,N′-(1,4-phenylene)bis{N′-[1-(tert-butoxycarbonyl)indol-3-yl]methyl (urea)}]
- phosphorylated form of ULK1 at Ser555 (Phospho-ULK Ser555): significant upregulation
- GPx ([1]; 24 h): 0.148 ± 0.021 μkat/mg Prot
- GPx ([1]; 48 h): 0.139 ± 0.028 μkat/mg Prot
- GPx ([1]; 72 h): 0.077 ± 0.038 μkat/mg Prot
